According to the supplement of paper PMC10307832:

How the values were obtained:
Assay in all cases: relative viability (nuclei count vs DMSO), 5 days (fraction); higher = more cells survive
[1] = compound: CC1=C(C=CC(=C1)[N+](=O)[O-])NS(=O)(=O)C2=C(C=CC(=C2)Cl)Cl [FH535] + CC(=O)c1c(C)c2cnc(Nc3ccc(N4CCNCC4)cn3)nc2n(C2CCCC2)c1=O [Palbociclib] (partner 0.5 µM)
Procedure, shortened: (§1)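 Lung cancer cell lines were seeded in 1536-well plates and dosed by pin tool the next day, with either a single drug or a fixed anchor-drug dose combined with five library-drug doses (not always all listed) spaced in √10 steps. Five days later, one step fixed the cells and stained their nuclei (final 0.05% Triton X-100, 1% formaldehyde, 1 ug/ml Hoechst), and nuclei were counted on 4× images. Relative viability is the nuclei count in treated wells divided by the count in vehicle wells, and each value is the median of duplicate plates.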

[2] = compound: CC1=C(C=CC(=C1)[N+](=O)[O-])NS(=O)(=O)C2=C(C=CC(=C2)Cl)Cl [FH535] + CC(C)C[C@H](NC(=O)[C@H](Cc1ccccc1)NC(=O)c1cnccn1)B(O)O [Bortezomib] (partner 0.002 µM)
Procedure, shortened: as §1

[3] = compound: CC1=C(C=CC(=C1)[N+](=O)[O-])NS(=O)(=O)C2=C(C=CC(=C2)Cl)Cl [FH535] + COc1cc2c(Oc3ccc(NC(=O)C4(C(=O)Nc5ccc(F)cc5)CC4)cc3F)ccnc2cc1OCCCN1CCOCC1 [Foretinib] (partner 0.25 µM)
Procedure, shortened: as §1

[4] = compound: CC1=C(C=CC(=C1)[N+](=O)[O-])NS(=O)(=O)C2=C(C=CC(=C2)Cl)Cl [FH535] + Nc1ncn([C@H]2C[C@H](O)[C@@H](CO)O2)c(=O)n1 [Decitabine] (partner 2 µM)
Procedure, shortened: as §1

[5] = compound: CC1=C(C=CC(=C1)[N+](=O)[O-])NS(=O)(=O)C2=C(C=CC(=C2)Cl)Cl [FH535] + Nc1nc2[nH]cc(CCc3ccc(C(=O)N[C@@H](CCC(=O)O)C(=O)O)cc3)c2c(=O)[nH]1 [Pemetrexed] (partner 0.2 µM)
Procedure, shortened: as §1

Cell Line: NCI-H727
- relative viability ([1]; first compound 0.04 µM): 0.663
- relative viability ([1]; first compound 0.1265 µM): 0.634
- relative viability ([1]; first compound 0.4 µM): 0.693
- relative viability ([1]; first compound 1.265 µM): 0.63
- relative viability ([2]; first compound 0.04 µM): 0.687
- relative viability ([2]; first compound 0.1265 µM): 0.59
- relative viability ([2]; first compound 0.4 µM): 0.75
- relative viability ([2]; first compound 1.265 µM): 0.721
- relative viability ([3]; first compound 0.04 µM): 1.04
- relative viability ([3]; first compound 0.1265 µM): 0.637
- relative viability ([3]; first compound 0.4 µM): 0.925
- relative viability ([3]; first compound 1.265 µM): 0.684
- relative viability ([4]; first compound 0.04 µM): 0.845
- relative viability ([4]; first compound 0.1265 µM): 0.945
- relative viability ([4]; first compound 0.4 µM): 0.851
- relative viability ([4]; first compound 1.265 µM): 0.877

Cell Line: NCI-H1395
- relative viability ([1]; first compound 0.04 µM): 0.599
- relative viability ([1]; first compound 0.1265 µM): 0.735
- relative viability ([1]; first compound 0.4 µM): 0.63
- relative viability ([1]; first compound 1.265 µM): 0.561
- relative viability ([3]; first compound 0.04 µM): 0.952
- relative viability ([3]; first compound 0.1265 µM): 0.967
- relative viability ([3]; first compound 0.4 µM): 0.868
- relative viability ([3]; first compound 1.265 µM): 0.831
- relative viability ([5]; first compound 0.04 µM): 0.768
- relative viability ([5]; first compound 0.1265 µM): 0.854
- relative viability ([5]; first compound 0.4 µM): 0.829
- relative viability ([5]; first compound 1.265 µM): 0.773
- relative viability ([4]; first compound 0.04 µM): 0.632
- relative viability ([4]; first compound 0.1265 µM): 0.685
- relative viability ([4]; first compound 0.4 µM): 0.702
- relative viability ([4]; first compound 1.265 µM): 0.653

Cell Line: NCI-H1563
- relative viability ([2]; first compound 0.04 µM): 0.835
- relative viability ([2]; first compound 0.1265 µM): 1.04
- relative viability ([2]; first compound 0.4 µM): 0.816
- relative viability ([2]; first compound 1.265 µM): 0.719
- relative viability ([3]; first compound 0.04 µM): 0.909
- relative viability ([3]; first compound 0.1265 µM): 0.825
- relative viability ([3]; first compound 0.4 µM): 0.994
- relative viability ([3]; first compound 1.265 µM): 0.874
- relative viability ([5]; first compound 0.04 µM): 0.786
- relative viability ([5]; first compound 0.1265 µM): 0.679
- relative viability ([5]; first compound 0.4 µM): 0.752
- relative viability ([5]; first compound 1.265 µM): 0.625

Cell Line: NCI-H1703
- relative viability ([2]; first compound 0.04 µM): 0.413
- relative viability ([2]; first compound 0.1265 µM): 0.288
- relative viability ([2]; first compound 0.4 µM): 0.425
- relative viability ([2]; first compound 1.265 µM): 0.317
- relative viability ([3]; first compound 0.04 µM): 0.416
- relative viability ([3]; first compound 0.4 µM): 0.324
- relative viability ([3]; first compound 1.265 µM): 0.344

Cell Line: NCI-H1792
- relative viability ([1]; first compound 0.04 µM): 0.657
- relative viability ([1]; first compound 0.1265 µM): 0.629
- relative viability ([1]; first compound 0.4 µM): 0.664
- relative viability ([1]; first compound 1.265 µM): 0.486
- relative viability ([2]; first compound 0.04 µM): 0.971
- relative viability ([2]; first compound 0.1265 µM): 0.932
- relative viability ([2]; first compound 0.4 µM): 0.835
- relative viability ([2]; first compound 1.265 µM): 0.688
- relative viability ([5]; first compound 0.04 µM): 0.708
- relative viability ([5]; first compound 0.1265 µM): 0.807
- relative viability ([5]; first compound 0.4 µM): 0.673
- relative viability ([5]; first compound 1.265 µM): 0.54
- relative viability ([4]; first compound 0.04 µM): 0.564
- relative viability ([4]; first compound 0.1265 µM): 0.523
- relative viability ([4]; first compound 0.4 µM): 0.506
- relative viability ([4]; first compound 1.265 µM): 0.457

Cell Line: NCI-H1793
- relative viability ([1]; first compound 0.04 µM): 0.315
- relative viability ([1]; first compound 0.1265 µM): 0.306
- relative viability ([1]; first compound 0.4 µM): 0.348
- relative viability ([1]; first compound 1.265 µM): 0.241
- relative viability ([3]; first compound 0.04 µM): 0.347
- relative viability ([3]; first compound 0.1265 µM): 0.775
- relative viability ([3]; first compound 0.4 µM): 0.798
- relative viability ([3]; first compound 1.265 µM): 0.458
- relative viability ([5]; first compound 0.04 µM): 0.655
- relative viability ([5]; first compound 0.1265 µM): 0.932
- relative viability ([5]; first compound 0.4 µM): 0.66
- relative viability ([5]; first compound 1.265 µM): 0.584
- relative viability ([4]; first compound 0.04 µM): 0.449
- relative viability ([4]; first compound 0.1265 µM): 0.571
- relative viability ([4]; first compound 0.4 µM): 0.487
- relative viability ([4]; first compound 1.265 µM): 0.422

Cell Line: NCI-H1944
- relative viability ([1]; first compound 0.04 µM): 0.328
- relative viability ([1]; first compound 0.1265 µM): 0.326
- relative viability ([1]; first compound 0.4 µM): 0.35
- relative viability ([1]; first compound 1.265 µM): 0.272
- relative viability ([3]; first compound 0.04 µM): 0.855
- relative viability ([3]; first compound 0.1265 µM): 0.922
- relative viability ([3]; first compound 0.4 µM): 0.882
- relative viability ([3]; first compound 1.265 µM): 0.857
- relative viability ([5]; first compound 0.04 µM): 0.53
- relative viability ([5]; first compound 0.1265 µM): 0.621
- relative viability ([5]; first compound 0.4 µM): 0.505
- relative viability ([5]; first compound 1.265 µM): 0.515
- relative viability ([4]; first compound 0.04 µM): 0.391
- relative viability ([4]; first compound 0.1265 µM): 0.489
- relative viability ([4]; first compound 0.4 µM): 0.414
- relative viability ([4]; first compound 1.265 µM): 0.441

Cell Line: NCI-H2170
- relative viability ([1]; first compound 0.04 µM): 0.397
- relative viability ([1]; first compound 0.1265 µM): 0.423
- relative viability ([1]; first compound 0.4 µM): 0.372
- relative viability ([1]; first compound 1.265 µM): 0.312
- relative viability ([3]; first compound 0.04 µM): 1.06
- relative viability ([3]; first compound 0.1265 µM): 0.96
- relative viability ([3]; first compound 0.4 µM): 0.988
- relative viability ([3]; first compound 1.265 µM): 0.891
- relative viability ([5]; first compound 0.04 µM): 0.262
- relative viability ([5]; first compound 0.1265 µM): 0.253
- relative viability ([5]; first compound 0.4 µM): 0.252
- relative viability ([5]; first compound 1.265 µM): 0.259
- relative viability ([4]; first compound 0.04 µM): 0.433
- relative viability ([4]; first compound 0.1265 µM): 0.473
- relative viability ([4]; first compound 0.4 µM): 0.443
- relative viability ([4]; first compound 1.265 µM): 0.447

Cell Line: NCI-H2228
- relative viability ([1]; first compound 0.04 µM): 0.734
- relative viability ([1]; first compound 0.1265 µM): 0.548
- relative viability ([1]; first compound 0.4 µM): 0.745
- relative viability ([1]; first compound 1.265 µM): 0.788
- relative viability ([2]; first compound 0.04 µM): 0.933
- relative viability ([2]; first compound 0.1265 µM): 0.81
- relative viability ([2]; first compound 0.4 µM): 0.839
- relative viability ([2]; first compound 1.265 µM): 0.829
- relative viability ([3]; first compound 0.04 µM): 0.752
- relative viability ([3]; first compound 0.1265 µM): 0.87
- relative viability ([3]; first compound 0.4 µM): 0.707
- relative viability ([3]; first compound 1.265 µM): 0.936
- relative viability ([5]; first compound 0.04 µM): 0.312
- relative viability ([5]; first compound 0.1265 µM): 0.364
- relative viability ([5]; first compound 0.4 µM): 0.327
- relative viability ([5]; first compound 1.265 µM): 0.341

Cell Line: SK-MES-1
- relative viability ([1]; first compound 0.04 µM): 0.305
- relative viability ([1]; first compound 0.1265 µM): 0.301
- relative viability ([1]; first compound 0.4 µM): 0.312
- relative viability ([1]; first compound 1.265 µM): 0.263
- relative viability ([3]; first compound 0.04 µM): 0.918
- relative viability ([3]; first compound 0.1265 µM): 1.05
- relative viability ([3]; first compound 0.4 µM): 0.963
- relative viability ([3]; first compound 1.265 µM): 0.814
- relative viability ([5]; first compound 0.04 µM): 0.934
- relative viability ([5]; first compound 0.1265 µM): 0.906
- relative viability ([5]; first compound 0.4 µM): 0.913
- relative viability ([5]; first compound 1.265 µM): 0.849
- relative viability ([4]; first compound 0.04 µM): 0.356
- relative viability ([4]; first compound 0.1265 µM): 0.347
- relative viability ([4]; first compound 0.4 µM): 0.429
- relative viability ([4]; first compound 1.265 µM): 0.386

Cell Line: SW 900
- relative viability ([1]; first compound 0.04 µM): 0.516
- relative viability ([1]; first compound 0.1265 µM): 0.503
- relative viability ([1]; first compound 0.4 µM): 0.507
- relative viability ([1]; first compound 1.265 µM): 0.454
- relative viability ([3]; first compound 0.04 µM): 0.745
- relative viability ([3]; first compound 0.1265 µM): 0.94
- relative viability ([3]; first compound 0.4 µM): 0.764
- relative viability ([3]; first compound 1.265 µM): 0.541
- relative viability ([5]; first compound 0.04 µM): 0.441
- relative viability ([5]; first compound 0.1265 µM): 0.479
- relative viability ([5]; first compound 0.4 µM): 0.501
- relative viability ([5]; first compound 1.265 µM): 0.472
- relative viability ([4]; first compound 0.04 µM): 0.443
- relative viability ([4]; first compound 0.1265 µM): 0.547
- relative viability ([4]; first compound 0.4 µM): 0.418
- relative viability ([4]; first compound 1.265 µM): 0.418
